In brackets after ≈: the same amount, converted by molar mass.
How the values were obtained:
OleD variant TDP-16 [1] = molecular target: T1, OleD variant TDP-16 (Streptomyces antibioticus, UniProt Q53685, A242L/P67T/Q268V/S132F); assay: NDP screening with 2-chloro-4-nitrophenyl glucoside (9); format: biochemical; details: donor 9, TDP-16, NDP as acceptor
Protocol: Reactions were allowed to proceed for 5 hours, quenched with an equal volume of 40 mM phosphoric acid (adjusted to pH 6.5 with triethylamine) and heated for 30 seconds on a heat block. Following, samples were centrifuged at 10,000 g for 30 min at 0° C. and the supernatant removed for analysis. The clarified reaction mixtures were analyzed by analytical reverse-phase HPLC. HPLC was conducted with a Supelcosil LC18-T (3 μm, 150×4.6 mm) column (from Sigma-Aldrich St. Louis, Mo., USA) with a gradient of 0% B to 100% B over 20 min (A=40 mM phosphoric acid [adjusted to pH 6.5 with triethylamine]; B=10% MeOH in 40 mM phosphoric acid [adjusted to pH 6.5 with triethylamine]; flow rate=0.5 mL min-1) and detection monitored at 254 nm.

[2] = molecular target: OleD variant P67T/S312F/A242L/Q268V (Streptomyces antibioticus, UniProt Q53685, A242L/P67T/Q268V/S132F); assay: Determination of equilibrium constants of the glucoside donor/UDP reaction; format: biochemical; details: with UDP, Tris-HCl 50 mM pH 8.5, 298K, relative to UDP-Glc (33a); calculated from Keq
Chain of OleD variant P67T/S312F/A242L/Q268V (Q53685 other isoform, or with tags, fused parts or gaps P55A/P67T/R82V/R83E/T84P/S132F/A242L/Q268V): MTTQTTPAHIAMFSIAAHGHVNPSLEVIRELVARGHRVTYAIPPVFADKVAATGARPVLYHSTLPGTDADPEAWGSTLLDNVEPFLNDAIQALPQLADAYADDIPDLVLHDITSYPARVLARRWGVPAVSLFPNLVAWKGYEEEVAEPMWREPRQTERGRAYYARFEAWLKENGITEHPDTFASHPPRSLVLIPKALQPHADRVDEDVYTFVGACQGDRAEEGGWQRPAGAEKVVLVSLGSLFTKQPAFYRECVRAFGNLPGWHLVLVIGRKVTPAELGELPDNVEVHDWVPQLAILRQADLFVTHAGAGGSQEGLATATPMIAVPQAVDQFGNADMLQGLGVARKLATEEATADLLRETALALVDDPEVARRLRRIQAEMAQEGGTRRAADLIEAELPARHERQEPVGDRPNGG
Protocol: Equilibrium constants (Keq, pH8.5) were also determined for 1, 2, 4, 7, and 9 and utilized to calculate the corresponding Gibbs free energy according to equation (1).
ΔG°pH8.5=−RT ln(Keq,pH8.5)
Reactions contained 21 μM (200 μg) OleD variant P67T/S312F/A242L/Q268V, 1 mM UDP, and 1 mM β-D-glucopyranoside donor (1, 2, 4, 7, or 9) in Tris-HCl buffer (50 mM, pH 8.5) in a final total volume of 200 μl. Multiple time course evaluations were conducted to determine the time at which each reaction reached equilibrium (<2 min for 7, 9; <90 min for 1, 4; 200 min for 2). Following, each analysis was conducted in triplicate to the minimum observed time point for equilibrium and samples were processed and evaluated as described below to determine concentrations of UDP to 33a (UDP-α-D-glucose). […] Glucoside and aglycon concentrations were inferred from the determined concentrations of UDP and 33a.

[3] = Solubility of donor under kinetic assay conditions; format: physicochemical; details: 50 mM Tris-HCl buffer, aqueous buffer; 50 mM Tris-HCl (pH 8.5)
OleD variant = OleD variant (Streptomyces antibioticus, UniProt Q53685, A242L/P67T/Q268V/S132F); assay: β-D-glucoside screening: reverse reaction forming UDP-/TDP-glucose; format: biochemical; details: in combination with OleD variant TDP-16
Chain of OleD variant (Q53685 other isoform, or with tags, fused parts or gaps P55A/P67T/R82V/R83E/T84P/S132F/A242L/Q268V): as above
Source text: The availability of a GT capable of utilizing a wide array of both simple aromatic acceptors and sugar nucleotides set the stage for this systematic study. With the aid of a crystal structure (10), previous directed evolution and engineering of an inverting macrolide-inactivating GT from S. antibioticus (OleD) identified several highly permissive variants for both sugar nucleotides (14 known sugar substrates) and acceptors (>70 structurally diverse known substrates) in the context of the forward reaction (11-16). Utilizing the aglycons recognized in forward reactions as a template, a set of 32 putative ü-D-glucopyranosides donors were synthesized and tested against a series of OleD variants in reverse reactions for production of UDP-J-D-glucose (UDP-Glc, 33a) in the presence of UDP (FIG. 14a). The syntheses of these putative donors required 1-3 steps (37% average overall yield) and, in all but one case (19), provided the desired E-anomer exclusively. Of the 32 putative donors evaluated, 9 (1-9) led to UDP-Glc (33a) formation with all variants examined (FIG. 14b).
Reactions containing 2.1 μM (10 μg) of purified OleD variant, 1 mM of UDP or TDP, and 1 mM of β-D-glucopyranoside (1-32) in Tris-HCl (50 mM, pH 8.5) with a final volume of 100 μl were incubated at room temperature for 1 hour. Samples were frozen in a bath of dry ice and acetone and stored at −20° C. […]

OleD variant TDP-16 [4] = molecular target: T1, OleD variant TDP-16; assay: Single enzyme coupled colorimetric screen of putative aglycon acceptors (410 nm); format: biochemical; details: 0.5 mM 9, 0.5 mM acceptor, 5 μM UDP, TDP-16, 410 nm over 480 min
Protocol: Specifically, each 100 PI reaction in the 96-well plate contained the sugar donor 9 (0.5 mM), a putative aglycon acceptor (0.5 mM), a catalytic amount of UDP (5 3M) and TDP-16 (11 3M) and reaction progress was monitored at 410 nm over 480 min. […] Based upon this cumulative rapid analysis, […] (62-103) led to a positive response (designated as three standard deviations above the mean for control reactions), 37 of which (62-93, 96, 97, 99, 101, 103) were subsequently confirmed by HPLC and/or LC/MS to lead to products consistent with glucoside formation.
Reactions containing 10.5 μM (50 μg) OleD variant TDP-16, 5 μM of UDP, 0.5 mM final acceptor (58 [as a positive control] and 62-111), and 0.5 mM 2-chloro-4-nitrophenyl-β-D-glucoside (9) in Tris-HCl buffer (50 mM, pH 8.5) with a final volume of 100 μl were prepared in a 96 well flat bottom Bacti plate (0.4 mL well^−1; Nagle Nunc International, Rochester, N.Y., USA). Absorbance measurements were recorded every 2 min at 410 nm for 8 hours on a FLUOstar Optima plate reader (BMG, Durham, N.C., USA) with the plate shaken within the reader for 5 seconds before collection of each time point. Reactions containing final acceptor were run at n=1, control reactions lacking final acceptor were run at n=6, and control reactions lacking both final acceptor and UDP were run at n=3. […]

OleD variant TDP-16 [5] = molecular target: T1, OleD variant TDP-16; assay: 2-chloro-4-nitrophenyl glycoside screening for NDP-sugar formation; format: biochemical
Protocol: Aliquots were removed at various time points, mixed with an equal volume of ddH2O, frozen in a bath of dry ice and acetone, and stored at −20° C. Following, samples were thawed at 4° C. and filtered through a MultiScreen Filter Plate (from Millipore, Billerica, Mass., USA) according to manufacturer's instructions. Samples were evaluated for formation of NDPsugar by analytical reverse-phase HPLC with a 250 mm×4.6 mm Gemini-NX 5μ C18 column (from Phenomenex, Torrance, Calif., USA) using a linear gradient of 0% to 50% CH3CN (solvent B) over 25 minutes (solvent A=50 mM PO4^−2, 5 mM tetrabutylammonium bisulfate, 2% acetonitrile [pH adjusted to 6.0 with KOH]; flow rate=1 ml min^−1; A254 nm).

T1 sequence (Q53685 other isoform, or with tags, fused parts or gaps P55A/P67T/R82V/R83E/T84P/S132F/A242L/Q268V): as above

Nc1ncnc2c1ncn2[C@@H]1O[C@H](COP(=O)(O)OP(=O)(O)O)[C@@H](O)[C@H]1O [ADP]
NDP-sugar formation efficiency (OleD variant TDP-16 [1]): much lower efficiency

OCC1O[C@@H](Oc2ccccc2Cl)C(O)[C@@H](O)[C@@H]1O (stereo partly drawn) [Compound 4, 2-chlorophenyl-β-D-glucopyranoside]
ΔG°pH8.5 of donor to UDP-Glc transformation [2]: +2.55 kcal mol-1

O=[N+]([O-])c1ccc(O[C@@H]2OC(CO)[C@@H](O)[C@H](O)C2O)c(Cl)c1 (stereo partly drawn) [Compound 9, 2-chloro-4-nitrophenyl-β-D-glucopyranoside]
solubility [3]: ~25 mM (≈ 8390 µg/mL)
ΔG°pH8.5 of donor to UDP-Glc transformation [2]: −2.78 kcal mol-1
overall yields of UDP-Glc (33a) or TDP-Glc (33b) (OleD variant): best overall yields

O=c1c(-c2ccc(O)cc2)coc2cc(O)cc(O)c12 [Compound 62, genistein]
response in colorimetric screen (three standard deviations above the mean for control reactions) (OleD variant TDP-16 [4]): hits

O=C(O)c1cn(C2CC2)c2cc(N3CCNCC3)c(F)cc2c1=O [Compound 92, ciprofloxacin]
response in colorimetric screen (three standard deviations above the mean for control reactions) (OleD variant TDP-16 [4]): hits

Nc1nc2c(ncn2[C@@H]2O[C@H](COP(=O)(O)OP(=O)(O)O)[C@@H](O)[C@H]2O)c(=O)[nH]1 [GDP]
NDP-sugar formation efficiency (OleD variant TDP-16 [1]): much lower efficiency

O=[N+]([O-])c1ccc(O[C@H]2OC[C@@H](O)[C@H](O)[C@H]2O)c(Cl)c1 [α-anomer of 38]
turnover as donor substrate (anomer) (OleD variant TDP-16 [5]): no turnover

Source: patent US20130004979A1, “GLYCOSYLTRANSFERASE REVERSIBILITY FOR SUGAR NUCLEOTIDE SYNTHESIS AND MICROSCALE SCANNING” (WISCONSIN ALUMNI RESEARCH FOUNDATION, priority 2010, published 2013)
